Consider 29 molecules from ChEMBL document CHEMBL1130637, “Pyrrolnitrin and related pyrroles endowed with antibacterial activities against Mycobacterium tuberculosis” (1998).

In general, MIC refers to the smallest concentration in the dilution series that meets the test's criterion for growth inhibition. Higher therefore signals weaker potency.

The test system of assay [1] is Mycobacterium avium. The experiment in a line: Antimycobacterial activity against Mycobacterium avium CIP 103317. In kind it is functional.
The test system of assay [2] is Mycobacterium tuberculosis. The experiment in a line: Antimycobacterial activity against Mycobacterium tuberculosis CIP 103471. In kind it is functional.
The subject of assay [3] is Mycobacterium gordonae. Nature of the assay: Antimycobacterial activity against Mycobacterium gordonae CIP 6427. In kind it is functional.
The subject of assay [4] is Vero. Nature of the assay: In vitro cytotoxicity against VERO cells. In kind it is functional, Chlorocebus sabaeus.
Assay [5] deals with Mycolicibacterium smegmatis. The experiment in a line: Antibacterial activity against Mycobacterium smegmatis CIP 103599. In kind it is functional.
The test system of assay [6] is Mycobacterium marinum. Nature of the assay: Compound was tested for anti-mycobacterial activity against Mycobacterium marinum CIP 6423. In kind it is functional.
Assay [7] relates to Mycobacterium marinum. Nature of the assay: Antimycobacterial activity against Mycobacterium marinum CIP 6423. In kind it is functional.
In assay [8] the test system is Vero. Nature of the assay: Compound was tested for cytotoxicity against VERO cells. In kind it is functional, Chlorocebus sabaeus.
Assay [9] has as its system Mycobacterium tuberculosis. The experiment in a line: Compound was tested for anti-mycobacterial activity against Mycobacterium tuberculosis CIP 103471. In kind it is functional.
For assay [10], the system named is Mycobacterium gordonae. Nature of the assay: Compound was tested for anti-mycobacterial activity against Mycobacterium gordonae CIP 6427. In kind it is functional.
Assay [11] has as its system Mycobacterium avium. The experiment in a line: Compound was tested for anti-mycobacterial activity against Mycobacterium avium CIP 103317. In kind it is functional.

≈ marks a conversion by molar mass, not a printed value. Bounds are passed on as bounds.

Take `O=[N+]([O-])c1c[nH]cc1-c1cccc(Cl)c1Cl`: the MIC in the assay with Mycobacterium avium [1] is > 16 µg/mL; in assay [2] it was 16 µg/mL (≈ 62.2 µM); with Mycobacterium gordonae [3], > 16 µg/mL; in [5] it was > 16 µg/mL; in the assay with Mycobacterium marinum [6], > 16 µg/mL. Further, the MTD50 in the assay on Vero [4] is 1 µg/mL.

Regarding `OCc1cn(Cc2ccccc2Cl)cc1-c1ccc(Cl)cc1`, the MIC against Mycobacterium avium [1] was > 16 µg/mL; in the assay on Mycobacterium marinum [7] it was > 16 µg/mL; in assay [2], 8 µg/mL (≈ 24.1 µM); in the assay on Mycobacterium gordonae [3] it was > 16 µg/mL; in assay [5], > 16 µg/mL. This molecule also displayed an MTD50 with Vero [4] of 15 µg/mL.

On to `CCOC(=O)c1cn(Cc2ccccc2)cc1-c1ccc(OC)cc1`, for which the MIC was > 16 µg/mL against Mycobacterium avium [1]; > 16 µg/mL in the assay on Mycobacterium marinum [7]; 8 µg/mL (≈ 23.9 µM) in assay [2]; > 16 µg/mL in the assay on Mycobacterium gordonae [3]; > 16 µg/mL in assay [5]. In the assay with Vero [4], this molecule had an MTD50 of 8 µg/mL.

With `O=[N+]([O-])c1c[nH]cc1-c1ccccc1Cl`, the minimal inhibitory concentration (MIC) (in the assay on Mycobacterium avium [1]; in the assay on Mycobacterium marinum [7]; in assay [2]; against Mycobacterium gordonae [3]; in assay [5]) was > 16 µg/mL each time.

Take `O=[N+]([O-])c1c[nH]cc1-c1ccc(Cl)cc1`: the MIC (against Mycobacterium avium [1]; in the assay on Mycobacterium marinum [7]; in assay [2]; against Mycobacterium gordonae [3]; in [5]) was > 16 µg/mL throughout.

`NC(=O)c1c[nH]cc1-c1ccc(Cl)cc1`: the MIC (with Mycobacterium avium [1]; in the assay on Mycobacterium marinum [7]; in [2]; with Mycobacterium gordonae [3]; in assay [5]) was > 16 µg/mL in each case. The molecule also gave an MTD50 in the assay with Vero [4] of 16 µg/mL.

Regarding `COc1ccc(-c2cn(C)cc2[N+](=O)[O-])c(Cl)c1`, the MIC (with Mycobacterium avium [1]; with Mycobacterium marinum [7]; in assay [2]; against Mycobacterium gordonae [3]; in assay [5]) was > 16 µg/mL in each case. In the assay on Vero [4], this molecule returned an MTD50 of 2 µg/mL.

`CCOC(=O)c1cn(C)cc1-c1ccc(OC)cc1`: the MTD50 with Vero [8] is 4 µg/mL. Besides, the MIC (in the assay with Mycobacterium avium [1]; against Mycobacterium marinum [7]; in assay [9]; with Mycobacterium gordonae [3]; in assay [5]) was > 16 µg/mL each time.

On to `O=[N+]([O-])c1c[nH]cc1-c1ccc(Cl)cc1Cl`, for which the MIC is 16 µg/mL (≈ 62.2 µM) with Mycobacterium avium [1]; > 16 µg/mL in the assay on Mycobacterium marinum [7]; 1 µg/mL (≈ 3.89 µM) in [2]; > 16 µg/mL with Mycobacterium gordonae [3]; > 16 µg/mL in assay [5]. In the assay with Vero [4], this molecule came in with an MTD50 of 1 µg/mL.

Take `O=[N+]([O-])c1c[nH]cc1-c1cccc(Cl)c1`: the MIC (with Mycobacterium avium [1]; against Mycobacterium marinum [7]; in [2]; in the assay with Mycobacterium gordonae [3]; in assay [5]) was > 16 µg/mL each time.

For `NNC(=O)c1c[nH]cc1-c1ccc(Cl)cc1`, the MIC (against Mycobacterium avium [1]; in the assay with Mycobacterium marinum [7]; in [2]; against Mycobacterium gordonae [3]; in assay [5]) was > 16 µg/mL in each case. For the same molecule, in the assay with Vero [4], the MTD50 was found to be 16 µg/mL.

Regarding `CCOC(=O)c1c[nH]cc1-c1ccc(Cl)cc1Cl`, the minimum inhibitory concentration (MIC) (in the assay on Mycobacterium avium [1]; in the assay on Mycobacterium marinum [7]; in [2]; against Mycobacterium gordonae [3]; in [5]) was > 16 µg/mL in each case. This molecule also registered an MTD50 with Vero [4] of 2 µg/mL.

For `O=C(O)c1cn(Cc2ccc(Cl)cc2)cc1-c1ccc(Cl)cc1`, the MIC in the assay on Mycobacterium avium [1] is 16 µg/mL (≈ 46.2 µM); with Mycobacterium marinum [7], > 16 µg/mL; in assay [2], 16 µg/mL (≈ 46.2 µM); against Mycobacterium gordonae [3], > 16 µg/mL; in assay [5], > 1 µg/mL. The molecule also came in with an MTD50 in the assay on Vero [4] of 8 µg/mL.

On to `Cn1cc(C(=O)O)c(-c2ccc(Cl)cc2)c1`, for which the MIC with Mycobacterium avium [1] is 16 µg/mL (≈ 67.9 µM); in the assay on Mycobacterium marinum [7] it was > 16 µg/mL; in assay [2], > 16 µg/mL; against Mycobacterium gordonae [3], > 16 µg/mL; in assay [5], > 16 µg/mL.

Take `COc1ccc(-c2c[nH]cc2[N+](=O)[O-])c(Cl)c1`: the MIC against Mycobacterium avium [1] was 16 µg/mL (≈ 63.3 µM); in the assay on Mycobacterium marinum [7], > 16 µg/mL; in [2] it was > 16 µg/mL; in the assay on Mycobacterium gordonae [3] it was > 16 µg/mL; in assay [5], > 16 µg/mL. This molecule also registered an MTD50 with Vero [4] of 2 µg/mL.

Consider `CCOC(=O)c1cn(Cc2ccc(F)cc2)cc1-c1ccccc1`, for which the minimal inhibitory concentration (MIC) in the assay on Mycobacterium avium [1] is 16 µg/mL (≈ 49.5 µM); against Mycobacterium marinum [7] it was > 16 µg/mL; in [2] it was > 16 µg/mL; in the assay with Mycobacterium gordonae [3], > 16 µg/mL; in assay [5], > 16 µg/mL. The same molecule displayed an MTD50 in the assay on Vero [4] of 4 µg/mL.

As to `CCOC(=O)c1cn(C)cc1-c1ccc(Cl)cc1`, the MIC (in the assay on Mycobacterium avium [1]; with Mycobacterium marinum [7]; in [2]; with Mycobacterium gordonae [3]; in assay [5]) was > 16 µg/mL each time.

Consider `O=[N+]([O-])c1c[nH]cc1-c1cc(Cl)cc(Cl)c1`, for which the MIC with Mycobacterium avium [1] is 16 µg/mL (≈ 62.2 µM); against Mycobacterium marinum [7], > 16 µg/mL; in assay [2], 8 µg/mL (≈ 31.1 µM); in the assay on Mycobacterium gordonae [3] it was > 16 µg/mL; in assay [5], > 16 µg/mL. In addition, the MTD50 with Vero [4] was found to be 1 µg/mL.

For the molecule `CCOC(=O)c1c[nH]cc1-c1ccc(Cl)cc1`, the MIC against Mycobacterium avium [1] was 4 µg/mL (≈ 16 µM); against Mycobacterium marinum [7] it was > 16 µg/mL; in [2] it was 16 µg/mL (≈ 64.1 µM); against Mycobacterium gordonae [3], > 16 µg/mL; in assay [5] it was > 16 µg/mL. Moreover, in the assay on Vero [4], the MTD50 was 4 µg/mL.

For the molecule `Cn1cc(-c2ccc(Cl)cc2Cl)c([N+](=O)[O-])c1`, the MIC (in the assay with Mycobacterium avium [1]; with Mycobacterium marinum [7]; in assay [2]; with Mycobacterium gordonae [3]; in assay [5]) was > 16 µg/mL in each case.

On to `Cn1cc(-c2ccc(Cl)cc2)c([N+](=O)[O-])c1`, for which the MIC (against Mycobacterium avium [1]; in the assay on Mycobacterium marinum [7]; in [2]; with Mycobacterium gordonae [3]; in assay [5]) was > 16 µg/mL throughout.

With `Cn1cc(-c2ccccc2Cl)c([N+](=O)[O-])c1`, the MIC (against Mycobacterium avium [1]; in the assay with Mycobacterium marinum [7]; in assay [2]; against Mycobacterium gordonae [3]; in assay [5]) was > 16 µg/mL each time.

As for `NC(=O)c1c[nH]cc1-c1ccc(Cl)cc1Cl`, the MIC in the assay with Mycobacterium avium [1] was 16 µg/mL (≈ 62.7 µM); with Mycobacterium marinum [7], > 16 µg/mL; in [2], > 16 µg/mL; in the assay on Mycobacterium gordonae [3], > 16 µg/mL; in [5] it was > 16 µg/mL. This molecule had an MTD50 in the assay on Vero [4] of 0.125 µg/mL.

Regarding `CCOC(=O)c1cn(Cc2ccc(F)cc2)cc1-c1ccc(OC)cc1`, the MIC was > 16 µg/mL against Mycobacterium avium [1]; > 16 µg/mL in the assay on Mycobacterium marinum [7]; 16 µg/mL (≈ 45.3 µM) in [2]; > 16 µg/mL against Mycobacterium gordonae [3]; > 16 µg/mL in assay [5]. In the assay on Vero [4], the MTD50 is 2 µg/mL.

As for `O=[N+]([O-])c1c[nH]cc1-c1c(Cl)cccc1Cl`, the MIC (against Mycobacterium avium [1]; in the assay with Mycobacterium marinum [7]; in [2]; in the assay with Mycobacterium gordonae [3]; in assay [5]) was > 16 µg/mL throughout.

As for `O=[N+]([O-])c1c[nH]cc1-c1ccc(Cl)c(Cl)c1`, the minimal inhibitory concentration (MIC) against Mycobacterium avium [1] is 16 µg/mL (≈ 62.2 µM); in the assay on Mycobacterium marinum [7], > 16 µg/mL; in [2] it was 8 µg/mL (≈ 31.1 µM); against Mycobacterium gordonae [3] it was > 16 µg/mL; in assay [5], > 16 µg/mL. In addition, the MTD50 in the assay with Vero [4] was determined as 2 µg/mL.

On to `NNC(=O)c1ccncc1` [ISONIAZID], for which the MIC against Mycobacterium avium [1] amounted to 32 µg/mL (≈ 233 µM); in the assay with Mycobacterium marinum [7], 16 µg/mL (≈ 117 µM); in [2] it was 0.25 µg/mL (≈ 1.82 µM); against Mycobacterium gordonae [3] it was 32 µg/mL (≈ 233 µM); in assay [5] it was 64 µg/mL (≈ 467 µM). This molecule yielded an MTD50 in the assay on Vero [4] of 32 µg/mL.

Turning to `O=[N+]([O-])c1c(Cl)cccc1-c1c[nH]cc1Cl` [PYRROLNITRIN], the MIC with Mycobacterium marinum [7] is > 16 µg/mL; in the assay with Mycobacterium gordonae [10], > 16 µg/mL; in assay [9] it was 4 µg/mL (≈ 15.6 µM); with Mycobacterium avium [11], 8 µg/mL (≈ 31.1 µM); in [5], 16 µg/mL (≈ 62.2 µM). In the assay on Vero [4], this molecule gave an MTD50 of 8 µg/mL.

As for `CN[C@@H]1[C@H](O[C@H]2[C@H](O[C@H]3[C@H](O)[C@@H](O)[C@H](N=C(N)N)[C@@H](O)[C@@H]3N=C(N)N)O[C@@H](C)[C@]2(O)C=O)O[C@@H](CO)[C@H](O)[C@H]1O` [STREPTOMYCIN], the MIC in the assay with Mycobacterium avium [1] is 8 µg/mL (≈ 13.8 µM); against Mycobacterium marinum [7], 32 µg/mL (≈ 55 µM); in assay [2], 0.5 µg/mL (≈ 0.86 µM); against Mycobacterium gordonae [3], 16 µg/mL (≈ 27.5 µM); in [5], 8 µg/mL (≈ 13.8 µM). Further, in the assay on Vero [4], the MTD50 came out at 128 µg/mL.
